The values that follow come from US7183324B2, “2,3,4-substituted cyclopentanones as therapeutic agents” (Allergan, Inc., priority 2004, dated 2007).

In series [1] the test system is Beagle dogs. Put plainly: Intraocular pressure in dogs (pneumatonometry). Format: in vivo. Conditions: dog, topical 25 μL drop, Conc. 0.1%, 5 day study. As for the experimental part: (§1) • Intraocular Pressure (IOP) Intraocular pressure studies in dogs involved pneumatonometry performed in conscious, Beagle dogs of both sexes (10–15 kg). The animals remained conscious throughout the study and were gently restrained by hand. Drugs were administered topically to one eye as a 25 μL volume drop, the other eye received 25 μL vehicle (0.1% polysorbate 80:10 mM TRIS) as a control. Proparacaine (0.1%) was used for corneal anesthesia during tonometry. Intraocular pressure was determined just before drug administration and at 2, 4 and 6 hr thereafter on each day of the 5 day study. Drug was administered immediately after the first IOP reading. • An analogous procedure was carried out with cynomolgus monkeys with measurements at 2, 4, 6, and 24 hours after a single dose. • Pupil Diameter • Dog pupil diameter was measured using an optistick (a mm ruler which included half-circle references of standard widths (mm) for reference. Gently restraining the dog by hand, pupil diameter was determined by matching a half-circle to the pupil in normal room light. In dogs with very dark pupils a specialized penlight was used, but only very briefly to avoid pupil constriction. Pupil diameter was measured at the same time as IOP and hyperemia. • Ocular Surface Hyperemia • Ocular surface hyperemia was visually assessed and scored according to a system typically used clinically.

A further series addresses T1, HEP3D (Homo sapiens, UniProt P43115).
T1 sequence (P43115 1-374 isoform P43115-4): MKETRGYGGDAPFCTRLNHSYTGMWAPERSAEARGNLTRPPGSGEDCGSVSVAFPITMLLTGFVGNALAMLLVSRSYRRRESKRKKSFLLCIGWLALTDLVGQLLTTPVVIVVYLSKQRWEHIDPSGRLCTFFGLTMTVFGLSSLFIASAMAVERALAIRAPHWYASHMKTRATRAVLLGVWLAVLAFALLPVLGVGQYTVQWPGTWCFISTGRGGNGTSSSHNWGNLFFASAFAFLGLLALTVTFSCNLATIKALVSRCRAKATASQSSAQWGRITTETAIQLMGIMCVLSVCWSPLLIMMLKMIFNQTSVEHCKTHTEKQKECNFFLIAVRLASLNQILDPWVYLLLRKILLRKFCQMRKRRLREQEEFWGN
In words: Radioligand binding, EP3 receptor. Conditions: [3H]PGE2 5 nM. In a few lines:
(§2)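 Membranes from HEK-293 cells stably expressing human EP receptors, in TME buffer pH 7.4. Competition against 5 nM [3H]PGE2, 60 min at 25 °C, duplicate, at least three experiments; GF/B filtration. Non-specific binding with 10^−5 M unlabeled PGE2.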

In the next series the target is T2, HEP4 (Homo sapiens, UniProt P35408).
T2 construct: expressed in transfected cells; host or cells: HEK-293
In words: Radioligand binding, EP4 receptor. Conditions: [3H]PGE2 5 nM, HEK-293 membranes. Put shortly: as §2

The subject of the next series is cynomolgus monkeys. In words: Intraocular pressure in cynomolgus monkeys. Format: in vivo. Conditions: monkey, topical single dose, Conc. 0.1%. As for the experimental part: as §1
Another series concerns the target T3, hEP4/Gqs5 (Homo sapiens, UniProt P35408).
T3 construct: expressed in transfected cells; host or cells: HEK-293 (EBNA)
Put plainly: FLIPR calcium signal, hEP4/Gqs5. Format: cell-based. Conditions: HEK-293 (EBNA) cells, read-out: FUNCTIONAL EC50 HEP4. In a few lines: (§3)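 HEK-293 (EBNA) cells stably expressing the recombinant human receptor (chimeric Gqs5 where indicated), Fluo-4 AM (2 μM) loaded 45 min, assayed in HBSS-HEPES pH 7.4 at 37 °C. Peak fluorescence (488 nm excitation) expressed relative to buffer and standard agonist controls; compounds tested at 10^−5 M or 10^−5–10^−11 M in duplicate, n≥3 plates.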

Series [2] concerns Beagle dogs. In words: Ocular surface hyperemia in dogs. Format: in vivo. Conditions: dog, topical, Conc. 0.1%; score: trace 0.5, mild 1, moderate 2, severe 3. As for the experimental part:
as §1
• Ocular surface hyperemia was evaluated at the same time points as intraocular pressure measurement. It should be noted that untreated dog eyes frequently have a pink/red tone. Thus, values of trace or even mild are not necessarily out of the normal range.

The target of another series is T4, HEP2 (Homo sapiens, UniProt P43116).
T4 construct: expressed in transfected cells; host or cells: HEK-293
Put plainly: Radioligand binding, EP2 receptor. Conditions: [3H]PGE2 5 nM, HEK-293 membranes. As for the experimental part: HEK-293 cells stably expressing the human or feline FP receptor, or EP1, EP2, or EP4 receptors were washed with TME buffer, scraped from the bottom of the flasks, and homogenized for 30 sec using a Brinkman PT 10/35 polytron. TME buffer was added to achieve a final 40 ml volume in the centrifuge tubes (the composition of TME is 100 mM TRIS base, 20 mM MgCl2, […]; 10N HCl is added to achieve a pH of 7.4).
The cell homogenate was centrifuged at 19000 r.p.m. for 20 min at 4° C. using a Beckman Ti-60 rotor. The resultant pellet was resuspended in TME buffer to give a final 1 mg/ml protein concentration, as determined by Biorad assay. Radioligand binding competition assays vs. [^3H-]17-phenyl PGF2α (5 nM) were performed in a 100 μl volume for 60 min. Binding reactions were started by adding plasma membrane fraction. The reaction was terminated by the addition of 4 ml ice-cold TRIS-HCl buffer and rapid filtration through glass fiber GF/B filters using a Brandel cell harvester. The filters were washed 3 times with ice-cold buffer and oven dried for one hour. Non-specific binding was determined with 10 uM unlabeled 17-phenyl PGF2α.
[^3H-] PGE2 (5 nM; specific activity 180 Ci mmol) was used as the radioligand for EP receptors. Binding studies employing EP1, EP2, EP3, EP4 were performed in duplicate in at least three separate experiments. A 200 μl assay volume was used. Incubations were for 60 min at 25° C. and were terminated by the addition of 4 ml of ice-cold 50 mM TRIS-HCl, followed by rapid filtration through Whatman GF/B filters and three additional 4 ml washes in a cell harvester (Brandel). Non-specific binding determined with 10^−5M of unlabeled PGE2.

The next series deals with T5, hEP2/Gqs5 (Homo sapiens, UniProt P43116).
T5 construct: expressed in transfected cells; host or cells: HEK-293 (EBNA)
In words: FLIPR calcium signal, hEP2/Gqs5. It counts as cell-based. Conditions: HEK-293 (EBNA) cells, read-out: FUNCTIONAL EC50 HEP2. As for the experimental part: (§4) HEK-293 (EBNA) cells, stably expressing one type or subtype of recombinant human prostaglandin receptors (prostaglandin receptors expressed: hDP/Gqs5; hEP1; hEP2/Gqs5; hEP3A/Gqi5; hEP4/Gqs5; hFP; hIP; hTP), were cultured in 100 mm culture dishes in high-glucose DMEM medium containing 10% fetal bovine serum, 2 mM 1-glutamine, 250 μg/ml geneticin (G418) and 200 μg/ml hygromycin B as selection markers, and 100 units/ml penicillin G, 100 μg/ml streptomycin and 0.25 μg/ml amphotericin B. • (b) Calcium Signal Studies on the FLIPR™
Cells were seeded at a density of 5×10^4 cells per well in Biocoat® Poly-D-lysine-coated black-wall, clear-bottom 96-well plates (Becton-Dickinson) and allowed to attach overnight in an incubator at 37° C. Cells were then washed two times with HBSS-HEPES buffer (Hanks Balanced Salt Solution without bicarbonate and phenol red, 20 mM HEPES, pH 7.4) using a Denley Cellwash plate washer (Labsystems). After 45 minutes of dye-loading in the dark, using the calcium-sensitive dye Fluo-4 AM at a final concentration of 2 μM, plates were washed four times with HBSS-HEPES buffer to remove excess dye leaving 100 μl in each well. Plates were re-equilibrated to 37° C. for a few minutes.
Cells were excited with an Argon laser at 488 nm, and emission was measured through a 510–570 nm bandwidth emission filter (FLIPR™, Molecular Devices, Sunnyvale, Calif.). Drug solution was added in a 50 μl volume to each well to give the desired final concentration. The peak increase in fluorescence intensity was recorded for each well. On each plate, four wells each served as negative (HBSS-HEPES buffer) and positive controls (standard agonists: BW245C (hDP); PGE2 (hEP1; hEP2/Gqs5; hEP3A/Gqi5; hEP4/Gqs5); PGF2α (hFP); carbacyclin (hIP); U46619 (hTP), depending on receptor). The peak fluorescence change in each drug-containing well was then expressed relative to the controls.
Compounds were tested in a high-throughput (HTS) or concentration-response (CoRe) format. […]

The next series concerns the target T6, hEP1 (Homo sapiens, UniProt P34995).
T6 construct: expressed in transfected cells; host or cells: HEK-293 (EBNA)
T6 sequence (P34995 1-402): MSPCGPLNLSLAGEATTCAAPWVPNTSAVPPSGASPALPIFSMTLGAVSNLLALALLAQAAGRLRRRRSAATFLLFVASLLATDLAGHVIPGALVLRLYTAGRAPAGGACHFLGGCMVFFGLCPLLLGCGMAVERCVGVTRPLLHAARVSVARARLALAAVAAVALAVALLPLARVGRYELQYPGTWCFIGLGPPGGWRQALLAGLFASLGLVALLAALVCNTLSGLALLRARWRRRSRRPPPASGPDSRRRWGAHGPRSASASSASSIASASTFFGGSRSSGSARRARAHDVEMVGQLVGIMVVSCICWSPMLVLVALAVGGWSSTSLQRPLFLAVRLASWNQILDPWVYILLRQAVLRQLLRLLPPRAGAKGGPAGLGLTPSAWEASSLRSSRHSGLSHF
In words: FLIPR calcium signal, hEP1. It counts as cell-based. Conditions: HEK-293 (EBNA) cells, read-out: FUNCTIONAL EC50 HEP1. As for the experimental part: as §4
(§5) Cells were seeded at a density of 5×10^4 cells per well in Biocoat® Poly-D-lysine-coated black-wall, clear-bottom 96-well plates (Becton-Dickinson) and allowed to attach overnight in an incubator at 37° C. Cells were then washed two times with HBSS-HEPES buffer (Hanks Balanced Salt Solution without bicarbonate and phenol red, 20 mM HEPES, pH 7.4) using a Denley Cellwash plate washer (Labsystems). […]
(§6) Cells were excited with an Argon laser at 488 nm, and emission was measured through a 510–570 nm bandwidth emission filter (FLIPR™, Molecular Devices, Sunnyvale, Calif.). […] The peak increase in fluorescence intensity was recorded for each well. […] The peak fluorescence change in each drug-containing well was then expressed relative to the controls. […]

In another series the target is T7, hDP/Gqs5 (Homo sapiens, UniProt Q13258).
T7 construct: expressed in transfected cells; host or cells: HEK-293 (EBNA)
T7 sequence (Q13258 1-359): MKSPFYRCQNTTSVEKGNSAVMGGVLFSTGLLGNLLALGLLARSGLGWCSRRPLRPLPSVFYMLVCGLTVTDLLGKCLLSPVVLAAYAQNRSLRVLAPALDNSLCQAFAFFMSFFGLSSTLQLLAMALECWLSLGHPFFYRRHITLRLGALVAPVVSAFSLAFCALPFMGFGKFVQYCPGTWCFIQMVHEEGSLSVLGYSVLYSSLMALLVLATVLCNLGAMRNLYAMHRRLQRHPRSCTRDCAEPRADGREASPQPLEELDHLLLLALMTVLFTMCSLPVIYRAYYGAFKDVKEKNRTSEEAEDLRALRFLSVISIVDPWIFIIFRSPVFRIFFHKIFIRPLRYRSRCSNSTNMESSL
Put plainly: FLIPR calcium signal, hDP/Gqs5. Format: cell-based. Conditions: HEK-293 (EBNA) cells, read-out: FUNCTIONAL EC50 HDP. How it is done:
as §4, §5, §6

A further series addresses T8, hEP3A/Gqi5 (Homo sapiens, UniProt P43115).
T8 construct: expressed in transfected cells; host or cells: HEK-293 (EBNA)
T8 sequence (P43115 1-390): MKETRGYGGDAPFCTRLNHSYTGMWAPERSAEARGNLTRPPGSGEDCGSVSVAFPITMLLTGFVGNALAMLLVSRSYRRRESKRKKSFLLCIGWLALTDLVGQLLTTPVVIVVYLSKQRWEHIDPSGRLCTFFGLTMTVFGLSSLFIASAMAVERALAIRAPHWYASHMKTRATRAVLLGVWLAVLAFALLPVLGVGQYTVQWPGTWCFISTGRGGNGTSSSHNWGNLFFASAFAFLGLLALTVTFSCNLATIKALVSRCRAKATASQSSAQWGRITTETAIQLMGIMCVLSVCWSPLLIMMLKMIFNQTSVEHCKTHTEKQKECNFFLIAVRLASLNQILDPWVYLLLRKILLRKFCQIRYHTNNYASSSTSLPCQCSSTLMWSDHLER
In words: FLIPR calcium signal, hEP3A/Gqi5. Format: cell-based. Conditions: HEK-293 (EBNA) cells, read-out: FUNCTIONAL EC50 HEP3A. Put shortly: as §3

SMILES strings stand for the structures.

T3 sequence (P35408 whole entry): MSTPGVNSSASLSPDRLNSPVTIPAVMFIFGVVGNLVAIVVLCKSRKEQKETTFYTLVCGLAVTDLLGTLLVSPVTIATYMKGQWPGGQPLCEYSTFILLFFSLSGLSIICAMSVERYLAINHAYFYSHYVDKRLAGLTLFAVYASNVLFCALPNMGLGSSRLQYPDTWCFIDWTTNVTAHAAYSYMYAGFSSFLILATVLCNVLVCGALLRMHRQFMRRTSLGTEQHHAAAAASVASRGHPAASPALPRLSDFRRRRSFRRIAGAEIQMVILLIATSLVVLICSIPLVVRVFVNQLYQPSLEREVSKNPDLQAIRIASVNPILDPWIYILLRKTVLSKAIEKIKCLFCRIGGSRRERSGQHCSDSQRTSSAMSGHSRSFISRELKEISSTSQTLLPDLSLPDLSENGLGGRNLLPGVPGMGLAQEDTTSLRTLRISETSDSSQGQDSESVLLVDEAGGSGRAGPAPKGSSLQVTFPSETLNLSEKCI
T2 sequence (P35408 whole entry): as above
T4 sequence (P43116 whole entry): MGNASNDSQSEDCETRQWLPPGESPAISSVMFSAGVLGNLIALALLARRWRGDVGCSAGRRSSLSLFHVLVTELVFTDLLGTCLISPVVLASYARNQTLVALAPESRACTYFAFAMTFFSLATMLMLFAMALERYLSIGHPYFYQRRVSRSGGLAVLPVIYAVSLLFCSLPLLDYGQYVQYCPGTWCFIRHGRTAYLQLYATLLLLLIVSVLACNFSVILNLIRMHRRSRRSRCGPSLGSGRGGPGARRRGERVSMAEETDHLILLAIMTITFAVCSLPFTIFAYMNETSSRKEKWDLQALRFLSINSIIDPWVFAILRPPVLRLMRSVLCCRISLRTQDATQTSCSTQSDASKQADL
T5 sequence (P43116 whole entry): as above

The IC50 is the concentration that gives 50% inhibition. In general, EC50 refers to the concentration that produces a half-maximal response. For the compound `O=C(O)CSCCCS[C@H]1C(=O)C[C@@H](CO)[C@@H]1/C=C/C(O)Cc1ccccc1` (single isomer, unassigned) [Compound 151], the results for the “Max. ΔIOP” value with Beagle dogs [1] and with cynomolgus monkeys were −4.0 mm Hg and −2.9 mm Hg, respectively. The values for the concentration for half-maximal inhibition (IC50) on HEP3D and on HEP4 were more than 10000 nM and 53 nM, respectively. The EC50 on hEP4/Gqs5 is 59 nM. For the same compound, the Max hyperemia with Beagle dogs [2] is reported as 1.6.

As for `CCCCC[C@H](O)/C=C/[C@H]1CCC(=O)[C@@H]1SCCCSCC(=O)O` [{3-[(1R,2R)-2-((E)-(S)-3-Hydroxy-oct-1-enyl)-5-oxo-cyclopentylsulfanyl]-propylsulfanyl}-acetic acid], the IC50 amounted to 2200 nM on HEP2 and 20 nM at HEP4. In addition, the EC50 at hEP2/Gqs5 is 1220 nM; on hEP1, more than 10000 nM; at hDP/Gqs5, more than 10000 nM; on hEP4/Gqs5, 1.6 nM; at hEP3A/Gqi5 it was 16 nM.
